# Test results as given in patent publication US9499492B2, “4-(ortho)-fluorophenyl-5-fluoropyrimidin-2-yl amines containing a sulfoximine group” (BAYER PHARMA AKTIENGESELLSCHAFT, priority 2012, dated 2016).
# Where two headings read alike, the source gives them in different places.
# Columns and labels:
# CDK9/CycT1 = CDK9/CycT1 (Homo sapiens (Human), UniProt P50750); test: CDK9/CycT1 high ATP kinase assay (Method 1b); format: biochemical; conditions: 2 mM ATP
# How it was run: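 Full-length His-tagged human CDK9/CycT1 (insect cells, ~0.5 μg/ml) pre-incubated 15 min at 22 °C with compound in Tris pH 8.0/MgCl2/DTT buffer; biotinylated peptide substrate, high ATP. After detection reagents, 1 h at 22 °C; TR-FRET 665/620 nm emission ratio (350 nm excitation) measured phosphorylation.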
# [1] = In vitro metabolic stability in rat hepatocytes (Method 5); format: in vitro ADME, Han Wistar rat; conditions: 1 μM test compound
# How it was run: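 Han Wistar rat hepatocytes isolated by 2-step perfusion, incubated at 1.0×10^6 viable cells/ml in Williams medium E with 5% FCS with 1 μM test compound, shaken; samples at 2–90 min quenched with acetonitrile, analysed by LC-MS/MS. Half-life from concentration-time plot, converted to intrinsic clearance.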
# [2] = system: B16F10, mouse melanoma cells; test: Proliferation assay, B16F10 (Method 3); format: cell-based; conditions: B16F10, 4 days, crystal violet, read-out: Inhibition of B16F10 cell proliferation IC50
# Experimental: (§1) After 24 hours, the cells of one plate (zero-point plate) were stained with crystal violet (see below), while the medium of the other plates was replaced by fresh culture medium (200 μl), to which the test substances were added in various concentrations (0 μM, as well as in the range of 0.001-10 μM; the final concentration of the solvent dimethyl sulfoxide was 0.5%). The cells were incubated for 4 days in the presence of test substances. Cell proliferation was determined by staining the cells with crystal violet: the cells were fixed by adding 20 μl/measuring point of an 11% glutaric aldehyde solution for 15 minutes at room temperature. After three washing cycles of the fixed cells with water, the plates were dried at room temperature. The cells were stained by adding 100 μl/measuring point of a 0.1% crystal violet solution (pH 3.0). After three washing cycles of the stained cells with water, the plates were dried at room temperature. The dye was dissolved by adding 100 μl/measuring point of a 10% acetic acid solution. The extinction was determined by photometry at a wavelength of 595 nm. The change of cell number, in percent, was calculated by normalization of the measured values to the extinction values of the zero-point plate (=0%) and the extinction of the untreated (0 μm) cells (=100%).
# [3] = system: HeLa-MaTu-ADR, multidrug-resistant human cervical carcinoma cells; test: Proliferation assay, HeLa-MaTu-ADR (Method 3); format: cell-based; conditions: 4 days, crystal violet, read-out: Inhibition of HeLa-MaTu-ADR cell proliferation IC50
# Experimental: as §1
# [4] = system: Caco-2, human colorectal carcinoma cells; test: Proliferation assay, Caco-2 (Method 3); format: cell-based; conditions: Caco-2, 4 days, crystal violet, read-out: Inhibition of Caco-2 cell proliferation IC50
# Experimental: as §1
# [5] = system: MOLM-13 human acute myeloid leukemia cells; test: Proliferation assay, MOLM-13 (Cell Titre-Glo, Method 3); format: cell-based; conditions: MOLM-13, 72-hour exposure, read-out: Inhibition of MOLM-13 cell proliferation IC50
# Experimental: Non-adherent MOLM-13 human acute myeloid leukemia cells (DSMZ ACC 554) were seeded at a density of 5,000 cells/well in a 96-well multititer plate in 100 μL of growth medium supplemented 10% fetal calf serum. After 24 hours, cell viability of one plate (zero-point plate) was determined with the Cell Titre-Glo Luminescent Cell Viability Assay (Promega), while 50 μL of test compound containing medium was added to the wells of the other plates (final concentrations in the range of 0.001-10 μM and DMSO controls; the final concentration of the solvent dimethyl sulfoxide was 0.5%). Cell viability was assessed after 72-hour exposure with the Cell Titre-Glo Luminescent Cell Viability Assay (Promega).
# Chain of CDK9/CycT1 (P50750 whole entry): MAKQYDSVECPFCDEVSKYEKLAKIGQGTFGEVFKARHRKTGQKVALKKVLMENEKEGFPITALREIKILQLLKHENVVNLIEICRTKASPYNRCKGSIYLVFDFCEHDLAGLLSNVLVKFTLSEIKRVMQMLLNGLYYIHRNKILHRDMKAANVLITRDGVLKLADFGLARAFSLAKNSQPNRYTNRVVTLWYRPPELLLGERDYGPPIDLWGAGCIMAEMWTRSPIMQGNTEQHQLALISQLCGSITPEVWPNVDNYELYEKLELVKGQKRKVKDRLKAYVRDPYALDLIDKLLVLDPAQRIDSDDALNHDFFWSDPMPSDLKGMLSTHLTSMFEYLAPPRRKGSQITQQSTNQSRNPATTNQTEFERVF
# Chain of CDK9/CycT1 (O60563 whole entry partner): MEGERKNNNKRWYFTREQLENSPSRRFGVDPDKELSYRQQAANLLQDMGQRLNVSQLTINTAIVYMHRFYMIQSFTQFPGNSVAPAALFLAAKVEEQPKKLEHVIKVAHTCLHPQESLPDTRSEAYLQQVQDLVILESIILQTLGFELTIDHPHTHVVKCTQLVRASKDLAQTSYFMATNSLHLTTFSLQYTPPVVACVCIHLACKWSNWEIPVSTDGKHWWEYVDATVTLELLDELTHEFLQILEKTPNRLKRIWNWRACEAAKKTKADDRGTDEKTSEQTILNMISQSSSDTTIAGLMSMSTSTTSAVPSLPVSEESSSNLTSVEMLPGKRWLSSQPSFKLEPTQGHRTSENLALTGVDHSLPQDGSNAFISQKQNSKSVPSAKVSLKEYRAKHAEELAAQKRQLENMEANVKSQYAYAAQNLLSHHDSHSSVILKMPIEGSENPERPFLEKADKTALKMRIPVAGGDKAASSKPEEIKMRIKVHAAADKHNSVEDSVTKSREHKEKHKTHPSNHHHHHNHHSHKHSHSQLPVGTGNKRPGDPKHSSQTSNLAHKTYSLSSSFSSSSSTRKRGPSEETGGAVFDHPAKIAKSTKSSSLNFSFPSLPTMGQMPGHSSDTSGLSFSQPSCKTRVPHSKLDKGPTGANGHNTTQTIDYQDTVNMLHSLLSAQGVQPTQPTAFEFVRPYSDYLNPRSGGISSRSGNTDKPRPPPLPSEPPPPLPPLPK
IC50 (CDK9/CycT1) [nM],maximal calculated oral bioavailability (Fmax) based on stability data in rat Hepatocytes [1] [%],"IC50 ([2]; Mus musculus, B16-F10, 96 h) [nM]","IC50 ([3]; Homo sapiens, 96 h) [nM]","IC50 ([4]; Homo sapiens, Caco-2, 96 h) [nM]","IC50 ([5]; Homo sapiens, MOLM-13, 72 h) [nM]",IC50 [2] [nM],IC50 [3] [nM],IC50 [4] [nM],IC50 [5] [nM],Compound
39,75,–,–,–,–,–,–,–,–,"CS(=O)(Cc1cc(Nc2ncc(F)c(-c3ccc(F)cc3F)n2)cc(C(F)(F)F)c1)=NC#N (racemic) [Example 1, (rac)-{[3-{[4-(2,4-Difluorophenyl)-5-fluoropyrimidin-2-yl]amino}-5-(trifluoromethyl)benzyl](methyl)oxido-λ^6-sulfanylidene}cyanamide]"
251,91,–,–,–,–,–,–,–,–,"CS(=N)(=O)Cc1cc(Nc2ncc(F)c(-c3ccc(F)cc3F)n2)cc(C(F)(F)F)c1 (racemic) [Example 4, (rac)-4-(2,4-Difluorophenyl)-5-fluoro-N-{3-[(S-methylsulfonimidoyl)methyl]-5-(trifluoromethyl)phenyl}pyrimidin-2-amine]"
105,80,–,–,–,–,–,–,–,–,"CS(=O)(Cc1cc(Nc2ncc(F)c(-c3ccc(F)cc3F)n2)cc(C(F)(F)F)c1)=NC(N)=O (racemic) [Example 7, (rac)-1-{[3-{[4-(2,4-Difluorophenyl)-5-fluoropyrimidin-2-yl]amino}-5-(trifluoromethyl)benzyl](methyl)oxido-λ^6-sulfanylidene}urea]"
892,79,–,–,–,–,–,–,–,–,"CS(=N)(=O)Cc1cc(Cl)cc(Nc2ncc(F)c(-c3ccc(F)cc3F)n2)c1 (racemic) [Example 15, (rac)-N-{3-chloro-5-[(S-methylsulfonimidoyl)methyl]phenyl}-4-(2,4-difluorophenyl)-5-fluoropyrimidin-2-amine]"
5,–,363,120,222,145,–,–,–,–,"CS(=O)(Cc1cc(Nc2ncc(F)c(-c3ccc(F)cc3F)n2)cc(S(F)(F)(F)(F)F)c1)=NC#N (racemic) [Example 28, (rac)-{[3-{[4-(2,4-Difluorophenyl)-5-fluoropyrimidin-2-yl]amino}-5-(pentafluoro-λ^6-sulfanyl)benzyl](methyl)oxido-λ^6-sulfanylidene}cyanamide]"
29,79,390,320,300,–,–,–,–,–,"CS(=O)(Cc1cc(Nc2ncc(F)c(-c3ccc(F)cc3F)n2)cc(C(F)(F)F)c1)=NC#N (single isomer, unassigned) [Example 2, {[3-{[4-(2,4-Difluorophenyl)-5-fluoropyrimidin-2-yl]amino}-5-(trifluoromethyl)benzyl](methyl)oxido-λ^6-sulfanylidene}cyanamide]"
32,76,–,–,–,–,340,200,300,–,"CS(=O)(Cc1cc(Nc2ncc(F)c(-c3ccc(F)cc3F)n2)cc(C(F)(F)F)c1)=NC#N (single isomer, unassigned) [Example 3, {[3-{[4-(2,4-Difluorophenyl)-5-fluoropyrimidin-2-yl]amino}-5-(trifluoromethyl)benzyl](methyl)oxido-λ^6-sulfanylidene}cyanamide]"
16,93,380,200,230,–,–,–,–,–,"CS(=O)(Cc1cc(Nc2ncc(F)c(-c3ccc(F)cc3F)n2)cc(C(F)(F)F)c1)=NC(N)=O (single isomer, unassigned) [Example 23, 1-{[3-{[4-(2,4-Difluorophenyl)-5-fluoropyrimidin-2-yl]amino}-5-(trifluoromethyl)benzyl](methyl)oxido-λ^6-sulfanylidene}urea]"
6,91,406,304,282,–,–,–,–,165,"CS(=N)(=O)Cc1cc(Nc2ncc(F)c(-c3ccc(F)cc3F)n2)cc(S(F)(F)(F)(F)F)c1 (single isomer, unassigned) [Example 32, 4-(2,4-Difluorophenyl)-5-fluoro-N-{3-[(S-methylsulfonimidoyl)methyl]-5-(pentafluoro-λ^6-sulfanyl)phenyl}pyrimidin-2-amine]"
99,–,611,–,–,–,–,495,716,200,"CS(=O)(Cc1cc(Nc2ncc(F)c(-c3ccc(F)cc3F)n2)cc(S(F)(F)(F)(F)F)c1)=NC(N)=O (single isomer, unassigned) [Example 33, 1-{[3-{[4-(2,4-Difluorophenyl)-5-fluoropyrimidin-2-yl]amino}-5-(pentafluoro-λ^6-sulfanyl)benzyl](methyl)oxido-λ^6-sulfanylidene}urea]"
